Earlier results, collected in PMC8231113, “Protein Secondary Structure Affects Glycan Clustering in Native Mass Spectrometry” (Life, 2021).

Legend:
[1] = system: deamidated GII.4 Saga P dimer; parameters: method as in PMID 30899001, PMID 30071731; conditions: NMR and HDX MS; cited from earlier work
[2] = biological target: wildtype GII.4 Saga P dimer; conditions: read-out: KD, result from NMR; cited from earlier work
[3] = system: hNoV P dimers; parameters: method as in PMID 22170811, PMID 30899001; conditions: cited from earlier work

Structure (SMILES)	reduction of glycan binding affinity of deamidated P dimer compared to the wildtype [1]	Kd [2]	binding to hNoV [3]
C[C@@H]1O[C@@H](O[C@H]2C(O)O[C@H](CO)[C@H](O)[C@@H]2O[C@H]2O[C@H](CO)[C@H](O)[C@H](O)[C@H]2O)[C@@H](O)[C@H](O)[C@@H]1O (some centres unmarked) [B trisaccharide]	roughly by an order of magnitude	6.7 mM	
O=C[C@@H](O)[C@H](O)[C@H](O)[C@@H](O)CO [L-galactose]			known not to bind
C[C@H](O)[C@@H](O)[C@@H](O)[C@H](O)C=O [fucose]	roughly by an order of magnitude	22 mM	
